Experiments:
Assay type in all cases: cell-based, human
A375 cells = assay: TUNEL apoptosis assay; conditions: single agent, 36 h; NO-Cbl 100 μM or Apo2L/TRAIL 100 ng/ml
Experimental: TUNEL assay. Please see FIG. 3. A375 cells were cultured for 36 h and exposed to various treatments (control, NO-Cbl, Apo2L/TRAIL and NO-Cbl+Apo2L/TRAIL. Apoptotic cells were detected by TUNEL (terminal deoxynucleotidyltransferase-mediated dUTP-biotin nick end-labeling) staining using a commercially available kit (APO-BRDU kit, BD-Pharmingen, San Diego, Calif.). Cells were processed according to the manufacturer's recommended protocol. The percentage of FITC-positive cells was analyzed by fluorescent activated cell scanning (FACS, Becton Dickinson, Facsvantage, San Diego, Calif.).
Cell line A375 has a defect in endogenous TRAIL gene induction therefore, additive cellular responses from exogenous TRAIL/Apo2L were avoided. TUNEL assays of A375 cells treated in vitro with NO-Cbl, Apo2L/TRAIL, or the combination were performed. FIG. 3 illustrates a TUNEL apoptosis assay in accordance with the present invention. A375 cells were treated with NO-Cbl, Apo-2L/TRAIL, and the combination. […] The highest levels of apoptosis were observed when cells were pre-treated with NO-Cbl followed by Apo2L/TRAIL treatment. Treatment for 36 h with NO-Cbl (100 μM) or Apo2L/TRAIL (100 ng/ml) induced 6.2% and 5.4% TUNEL-positive cells, respectively.

[1] = system: CMN1 (normal melanocytes); assay: Sulforhodamine B cell growth assay, normal cells
Experimental: (§1) Cell Culture treatments. Cells were maintained in RPMI or DMEM (Mediatech, Herndon, Va.) containing 5% fetal bovine serum (Hyclone, Logan, Utah) and 1% Antibiotic-Antimycotic (GEBCO, Invitrogen Carlsbad, Calif.) as recommended per the American Type Culture Collection media protocol for each cell line. Cells were maintained in 5% CO2 at 37° C. in a humidified tissue culture incubator. Primary non-tumorigenic […] cell lines (DMN-1 and CMN-1), and human foreskin fibroblasts (HFF; CCF, Cleveland, Ohio) were cultured in DMEM-F12 medium supplemented with 10% FBS. Cells were confirmed as mycoplasma free.
(§2) Sulforhodamine B Cell Growth Assay. Cells were harvested with 0.5% trypsin/0.53 mM EDTA, washed with PBS and resuspended in media containing 10% FBS. Cells were plated in 96-well plates in 0.2-ml aliquots. Cells were allowed to adhere to the plate for 4 h and then NO-Cbl was added in different concentrations to the assay plate. A minimum of four were performed for each treatment. After 16 h, various chemotherapeutic agents including cytokines were added at different concentrations. Growth was monitored by the sulforhodamine B (SRB; Sigma Chemical, St. Louis, Mo.) colorimetric assay. After 36 h, the medium was removed, and the cells were fixed with 10% trichloroacetic acid and stained with SRB. Bound dye was eluted from the cells with 10 mM Tris-HCl (pH 10.5) and absorbance was measured at 570 nm using a Lab systems Multiskan RC 96-well plate reader (Lab Systems Multiscan RC, Thermo Lab Systems, Franklin, Mass.). To quantify the growth of the cells, the experimental absorbance values (Aexp) were compared with initial absorbance readings representing the starting cell numbers (Aini). To determine the starting cell number, an additional 96-well plate was seeded with cells and fixed at the beginning of the experiment. After 5 days growth, the untreated control cells and drug treated cells were fixed and stained with SRB. The absorbances derived from the initial plate and from the untreated cells at the end of the growth period (Afin) were defined as 0% and 100% growth, respectively. The percentage control growth (100%×[Aexp−Aini]/[Afin−Aini]) is expressed as a percentage of untreated controls.
(§3) Anti-tumor effects of NO-Cbl, Apo2L/TRAIL, and the combination iii vitro. NO-Cbl enhances the anti-cellular effects of Apo2L/TRAIL against malignant Apo2L/TRAIL-resistant cell lines. First the antiproliferative effects of three melanoma lines A375, WM9, and WM3211 (previously reported to be resistant to Apo2L/TRAIL) were measured. Although Apo2L/TRAIL was used as the chemotherapeutic agents, a wide range of anti-cancer drugs and techniques would be enhanced by the NO based cobalamin compounds due to their effective inhibition of the cell survival mechanism. Such other chemotherapeutic agents are tested in the following examples. […] The SRB antiproliferative assay, used by the National Cancer Institute (NCI) to evaluate new chemotherapeutic agents was used herein. Median effect analysis was used to analyze drug interactions between NO-Cbl and Apo2L/TRAIL. Cells were pre-treated with NO-Cbl for 16 h followed by Apo2L/TRAIL for 24 h.
(§4) The effects of nitrosylcobalamin (NO-Cbl), Apo2L/TRAIL, and the combination on the proliferation of melanoma cell lines A375, WM9, and WM3211 and normal cell lines CMN1, DMN1, and fibroblasts were observed. Cells were treated with NO-Cbl, Apo2L/TRAIL, or pre-treated with NO-Cbl followed by Apo2L/TRAIL for three days, and growth was measured by the colorimetric sulforhodamine B assay. Data points were generated to represent the mean of four replicates±standard error of the mean (SEM). Synergy between NO-Cbl and Apo2L/TRAIL was determined by median effect analysis, (combination index >1 indicates antagonism, =1 indicates additivity, and <1 indicates synergy). The combination index is represented in FIG. 1 and as the combination index observed at the specified concentrations. […]

normal fibroblasts = assay: Sulforhodamine B cell growth assay, normal cells
Experimental: as §1, §2, §3, §4

[2] = system: DMN1 (normal melanocytes); assay: Sulforhodamine B cell growth assay, normal cells
Experimental: as §1, §2, §3, §4

nitrosylcobalamin [NO-Cbl]
TUNEL-positive cells (A375 cells): 6.2%
antiproliferative effect on normal cells [1]: completely resistant
antiproliferative effect on normal cells (normal fibroblasts): completely resistant
antiproliferative effect on normal cells [2]: completely resistant

Source: US20080138280A1, “Composition and Methods For Inhibiting Cell Survival” (The Cleveland Clinic Foundation, priority 2003, published 2008)
